Assay results from ChEMBL document CHEMBL4190357, “New Substituted Cyanoindoline Derivatives as MAP3K14 Kinase Inhibitors for the Treatment of Cancer and Autoimmune Disorders” (ACS Med Chem Lett, 2017).

What was measured:
[1] = system: JJN-3; experiment: Antiproliferative activity against human JJN-3 cells after 96 hrs by CellTiter-Glo luminescence assay; type: functional, cell-based; details: JJN-3, 96 h
[2] = system: KMS-12-BM; experiment: Antiproliferative activity against human KMS-12-BM cells after 96 hrs by CellTiter-Glo luminescence assay; type: functional, cell-based
[3] = target: T1, Mitogen-activated protein kinase kinase kinase 14 (Homo sapiens, UniProt Q99558); experiment: Inhibition of MAP3K14 in human L363 assessed as decrease in IKKalpha phosphorylation level after 2 hrs by sandwich immuno assay
[4] = target: T1, Mitogen-activated protein kinase kinase kinase 14; experiment: Inhibition of recombinant human GST-tagged MAP3K14 autophosphorylation after 1 hr by Alpha screen assay

T1 sequence (Q99558 whole entry): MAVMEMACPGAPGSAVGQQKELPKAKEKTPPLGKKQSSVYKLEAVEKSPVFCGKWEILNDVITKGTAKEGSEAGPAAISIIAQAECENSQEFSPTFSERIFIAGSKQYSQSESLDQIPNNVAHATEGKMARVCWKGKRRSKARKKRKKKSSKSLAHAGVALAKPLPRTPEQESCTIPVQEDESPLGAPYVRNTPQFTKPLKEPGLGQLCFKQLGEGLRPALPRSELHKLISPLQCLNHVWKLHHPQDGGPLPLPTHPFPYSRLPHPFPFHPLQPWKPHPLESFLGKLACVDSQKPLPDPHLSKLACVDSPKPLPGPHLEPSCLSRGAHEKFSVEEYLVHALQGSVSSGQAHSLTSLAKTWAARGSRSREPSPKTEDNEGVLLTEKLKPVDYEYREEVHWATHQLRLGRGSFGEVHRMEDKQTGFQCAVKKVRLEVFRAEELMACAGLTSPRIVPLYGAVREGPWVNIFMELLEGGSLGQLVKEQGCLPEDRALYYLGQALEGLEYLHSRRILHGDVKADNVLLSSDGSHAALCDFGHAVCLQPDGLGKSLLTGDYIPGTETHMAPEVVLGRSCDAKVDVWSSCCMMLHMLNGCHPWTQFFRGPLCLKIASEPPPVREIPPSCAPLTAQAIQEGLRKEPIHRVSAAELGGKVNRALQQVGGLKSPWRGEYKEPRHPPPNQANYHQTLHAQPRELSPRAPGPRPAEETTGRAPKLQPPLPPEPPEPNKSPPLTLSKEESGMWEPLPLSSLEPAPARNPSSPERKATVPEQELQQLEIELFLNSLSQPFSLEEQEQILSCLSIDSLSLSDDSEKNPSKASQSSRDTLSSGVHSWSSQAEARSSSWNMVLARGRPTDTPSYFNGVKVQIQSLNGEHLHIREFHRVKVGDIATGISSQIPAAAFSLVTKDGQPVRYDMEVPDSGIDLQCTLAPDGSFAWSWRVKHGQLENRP

Row | IC50 [3] | IC50 [4] | Structure (SMILES) | IC50 [1] | IC50 [2]
1 | 1.2 nM |  | Cc1ccc(C#N)cc1Nc1ncc(F)c(-c2cc(C#N)c3c(c2)[C@@](C)(CO)CN3)n1 | 302 nM | > 10 µM
2 | 2.2 nM | 1.8 nM | CNC(=O)c1ccc(C)c(Nc2nccc(-c3cc(C#N)c4c(c3)[C@@](C)(CO)CN4)n2)c1 | 85 nM | 5.19 µM
3 | 6.3 nM |  | C[C@]1(CO)CNc2c(C#N)cc(-c3ccnc(Nc4cc(C#N)ccc4CO)n3)cc21 | 240 nM | > 10 µM
4 | 2.2 nM |  | [2H]C([2H])(O)c1ccc(C)c(Nc2nccc(-c3cc(C#N)c4c(c3)[C@@](C)(CO)CN4)n2)c1 | 91 nM | > 10 µM
5 | 11.5 nM |  | C[C@]1(CO)CNc2c(C#N)cc(-c3ccnc(Nc4cc(C#N)ccc4OC4CC4)n3)cc21 | 67 nM | 1.23 µM
6 | 19.5 nM |  | CNC(=O)c1ccc(OC(C)C)c(Nc2nccc(-c3cc(C#N)c4c(c3)[C@@](C)(CO)CN4)n2)c1 | 288 nM | > 10 µM
7 | 1.3 nM |  | Cc1cc(CCN2CCOCC2)c(C#N)cc1Nc1nccc(-c2cc(C#N)c3c(c2)[C@@](C)(CO)CN3)n1 | 29 nM | > 10 µM
8 | 21.4 nM |  | CN1CC(F)C(Oc2ccc(C#N)cc2Nc2nccc(-c3cc(C#N)c4c(c3)[C@@](C)(CO)CN4)n2)C1 (some centres not stated) | 741 nM | > 10 µM
9 | 6 nM |  | Cc1cc(F)c(C#N)cc1Nc1nccc(-c2cc(C#N)c3c(c2)[C@@](C)(CO)CN3)n1 | 617 nM | > 10 µM
10 | 6.6 nM |  | CC(C)Oc1ccc(CO)cc1Nc1nccc(-c2cc(C#N)c3c(c2)[C@@](C)(CO)CN3)n1 | 141 nM | > 10 µM
11 | 7.8 nM |  | Cc1cc(F)c(CO)cc1Nc1nccc(-c2cc(C#N)c3c(c2)[C@@](C)(CO)CN3)n1 | 272 nM | > 10 µM
12 | 25.7 nM |  | CC(C)(O)COc1ccc(C#N)cc1Nc1nccc(-c2cc(C#N)c3c(c2)[C@@](C)(CO)CN3)n1 | 138 nM | 4.9 µM
